From ChEMBL document CHEMBL1152560, “Substituted 2-arylbenzothiazoles as kinase inhibitors: hit-to-lead optimization” (Bioorg Med Chem, 2009)

Columns and labels:
[1] = biological target: T1, Serine/threonine-protein kinase 3 (Homo sapiens) (UniProt Q13188); experiment: Residual activity of MST2 at 1 uM by microplate scintillation counting
T1 sequence (whole entry): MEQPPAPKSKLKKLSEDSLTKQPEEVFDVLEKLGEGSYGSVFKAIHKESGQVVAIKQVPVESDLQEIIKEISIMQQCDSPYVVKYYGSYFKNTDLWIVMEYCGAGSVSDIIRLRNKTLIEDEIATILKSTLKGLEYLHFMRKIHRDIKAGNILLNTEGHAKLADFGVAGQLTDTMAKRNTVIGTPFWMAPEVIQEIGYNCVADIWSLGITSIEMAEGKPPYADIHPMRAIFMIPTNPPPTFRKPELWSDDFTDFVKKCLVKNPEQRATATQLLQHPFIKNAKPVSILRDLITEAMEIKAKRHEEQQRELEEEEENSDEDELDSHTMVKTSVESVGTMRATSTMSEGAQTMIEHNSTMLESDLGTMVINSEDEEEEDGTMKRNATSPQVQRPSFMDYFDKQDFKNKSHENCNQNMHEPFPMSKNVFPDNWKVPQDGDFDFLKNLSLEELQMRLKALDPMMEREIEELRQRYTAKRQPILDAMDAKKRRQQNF

[2] = Residual activity of PKA at 10 uM by microplate scintillation counting
[3] = biological target: Ribosomal protein S6 kinase beta-2 (Homo sapiens) (UniProt Q9UBS0); experiment: Residual activity of S6Kbeta at 10 uM by microplate scintillation counting
Sequence of Ribosomal protein S6 kinase beta-2 (Homo sapiens) (Q9UBS0 whole entry): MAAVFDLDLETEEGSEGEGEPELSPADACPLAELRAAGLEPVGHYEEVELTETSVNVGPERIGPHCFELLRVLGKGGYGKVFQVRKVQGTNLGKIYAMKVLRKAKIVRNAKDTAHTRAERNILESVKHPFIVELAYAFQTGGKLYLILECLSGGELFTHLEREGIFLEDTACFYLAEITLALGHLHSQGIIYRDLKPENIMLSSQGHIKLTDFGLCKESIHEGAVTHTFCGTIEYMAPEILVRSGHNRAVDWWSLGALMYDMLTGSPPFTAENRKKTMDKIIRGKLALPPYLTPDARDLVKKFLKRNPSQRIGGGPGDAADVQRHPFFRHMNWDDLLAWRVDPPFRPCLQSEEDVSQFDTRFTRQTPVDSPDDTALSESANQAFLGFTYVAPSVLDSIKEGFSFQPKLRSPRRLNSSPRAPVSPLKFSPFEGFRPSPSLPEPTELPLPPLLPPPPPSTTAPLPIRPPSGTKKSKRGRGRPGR

[4] = biological target: Platelet-derived growth factor receptor beta (Homo sapiens, UniProt P09619); experiment: Residual activity of PDGFRbeta at 1 uM by microplate scintillation counting
Sequence of Platelet-derived growth factor receptor beta (P09619 whole entry): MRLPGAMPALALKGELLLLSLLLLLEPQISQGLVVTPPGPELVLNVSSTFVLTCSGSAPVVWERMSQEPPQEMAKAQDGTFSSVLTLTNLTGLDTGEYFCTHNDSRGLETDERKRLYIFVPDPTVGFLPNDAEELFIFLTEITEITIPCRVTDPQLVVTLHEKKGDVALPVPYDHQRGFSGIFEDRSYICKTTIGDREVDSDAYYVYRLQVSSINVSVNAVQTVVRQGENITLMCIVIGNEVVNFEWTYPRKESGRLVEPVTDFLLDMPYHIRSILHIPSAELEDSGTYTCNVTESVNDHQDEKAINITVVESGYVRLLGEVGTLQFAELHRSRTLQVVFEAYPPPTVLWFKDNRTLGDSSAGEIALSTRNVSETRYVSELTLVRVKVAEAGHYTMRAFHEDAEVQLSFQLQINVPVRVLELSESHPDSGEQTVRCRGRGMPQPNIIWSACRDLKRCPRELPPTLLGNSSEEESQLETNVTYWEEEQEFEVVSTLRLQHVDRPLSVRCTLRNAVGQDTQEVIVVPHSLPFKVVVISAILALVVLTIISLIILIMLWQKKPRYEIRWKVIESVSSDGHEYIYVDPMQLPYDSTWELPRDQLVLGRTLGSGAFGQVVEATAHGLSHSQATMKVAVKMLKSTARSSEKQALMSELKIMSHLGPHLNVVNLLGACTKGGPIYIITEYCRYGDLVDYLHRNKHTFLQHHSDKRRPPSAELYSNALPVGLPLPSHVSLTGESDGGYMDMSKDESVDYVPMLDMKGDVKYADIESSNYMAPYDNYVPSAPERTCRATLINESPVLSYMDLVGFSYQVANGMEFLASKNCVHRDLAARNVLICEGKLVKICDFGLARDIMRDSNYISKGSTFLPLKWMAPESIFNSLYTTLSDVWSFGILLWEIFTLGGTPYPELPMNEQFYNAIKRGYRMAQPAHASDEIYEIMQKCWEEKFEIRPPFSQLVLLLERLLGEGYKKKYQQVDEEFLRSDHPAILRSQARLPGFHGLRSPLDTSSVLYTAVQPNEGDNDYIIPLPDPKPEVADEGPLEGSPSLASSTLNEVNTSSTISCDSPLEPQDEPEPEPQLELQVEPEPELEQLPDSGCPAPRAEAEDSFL

[5] = biological target: T2, Protein kinase C zeta type (Homo sapiens) (UniProt Q05513); experiment: Residual activity of PKCzeta at 10 uM by microplate scintillation counting
T2 sequence (whole entry): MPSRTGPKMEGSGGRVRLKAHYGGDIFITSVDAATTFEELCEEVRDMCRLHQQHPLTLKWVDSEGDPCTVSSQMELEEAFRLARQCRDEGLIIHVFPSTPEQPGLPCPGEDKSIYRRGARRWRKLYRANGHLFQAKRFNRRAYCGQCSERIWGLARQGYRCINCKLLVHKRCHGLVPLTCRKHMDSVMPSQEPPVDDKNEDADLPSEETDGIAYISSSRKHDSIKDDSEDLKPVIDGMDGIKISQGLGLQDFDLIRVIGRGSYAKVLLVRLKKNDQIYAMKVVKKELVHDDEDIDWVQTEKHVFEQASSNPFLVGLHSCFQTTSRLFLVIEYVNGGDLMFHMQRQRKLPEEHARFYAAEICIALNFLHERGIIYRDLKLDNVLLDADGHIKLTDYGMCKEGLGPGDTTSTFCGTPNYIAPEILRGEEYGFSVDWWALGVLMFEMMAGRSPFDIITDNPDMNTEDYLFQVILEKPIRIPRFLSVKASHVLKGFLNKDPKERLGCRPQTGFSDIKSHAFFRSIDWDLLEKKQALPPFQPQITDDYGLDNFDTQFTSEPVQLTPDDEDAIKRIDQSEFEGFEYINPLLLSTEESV

[6] = biological target: T3, Tyrosine-protein kinase Tec (Homo sapiens) (UniProt P42680); experiment: Residual activity of TEC at 10 uM by microplate scintillation counting
T3 sequence (whole entry): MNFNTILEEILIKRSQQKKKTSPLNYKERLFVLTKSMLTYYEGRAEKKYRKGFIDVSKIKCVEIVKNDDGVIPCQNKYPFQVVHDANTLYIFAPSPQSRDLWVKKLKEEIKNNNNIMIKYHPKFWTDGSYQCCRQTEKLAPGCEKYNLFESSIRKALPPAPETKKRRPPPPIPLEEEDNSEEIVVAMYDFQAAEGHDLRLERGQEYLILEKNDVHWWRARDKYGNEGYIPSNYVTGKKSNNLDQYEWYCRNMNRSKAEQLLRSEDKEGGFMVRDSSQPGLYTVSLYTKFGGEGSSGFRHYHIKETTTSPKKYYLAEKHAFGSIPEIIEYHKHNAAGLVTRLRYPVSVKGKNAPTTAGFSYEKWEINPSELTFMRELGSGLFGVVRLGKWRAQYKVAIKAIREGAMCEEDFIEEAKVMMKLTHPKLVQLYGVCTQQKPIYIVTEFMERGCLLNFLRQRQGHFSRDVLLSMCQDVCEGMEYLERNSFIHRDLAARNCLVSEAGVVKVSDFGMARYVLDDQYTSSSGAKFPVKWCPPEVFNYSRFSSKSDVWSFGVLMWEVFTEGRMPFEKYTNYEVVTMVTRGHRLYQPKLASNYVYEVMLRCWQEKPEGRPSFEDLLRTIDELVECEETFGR

[7] = biological target: Serine/threonine-protein kinase PAK 2 (Homo sapiens) (UniProt Q13177); experiment: Residual activity of PAK2 at 10 uM by microplate scintillation counting
Sequence of Serine/threonine-protein kinase PAK 2 (Homo sapiens) (Q13177 whole entry): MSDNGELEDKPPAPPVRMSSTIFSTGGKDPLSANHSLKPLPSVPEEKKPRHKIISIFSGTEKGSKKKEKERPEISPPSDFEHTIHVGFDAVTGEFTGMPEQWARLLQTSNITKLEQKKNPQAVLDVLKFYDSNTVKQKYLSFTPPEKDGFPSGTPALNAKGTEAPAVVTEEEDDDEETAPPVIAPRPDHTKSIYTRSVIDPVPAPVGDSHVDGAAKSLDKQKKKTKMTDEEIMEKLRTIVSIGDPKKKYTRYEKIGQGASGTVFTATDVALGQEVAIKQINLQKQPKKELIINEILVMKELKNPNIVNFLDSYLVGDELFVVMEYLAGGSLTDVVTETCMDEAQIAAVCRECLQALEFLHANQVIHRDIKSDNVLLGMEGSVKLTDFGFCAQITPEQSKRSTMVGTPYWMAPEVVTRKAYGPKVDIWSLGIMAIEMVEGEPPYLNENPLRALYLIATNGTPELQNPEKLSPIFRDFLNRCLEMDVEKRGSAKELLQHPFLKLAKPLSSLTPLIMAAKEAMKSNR

[8] = biological target: Protein kinase C beta type (Homo sapiens) (UniProt P05771); experiment: Residual activity of PKCbeta2 at 10 uM by microplate scintillation counting
Sequence of Protein kinase C beta type (Homo sapiens) (P05771 2-671 limits assumed): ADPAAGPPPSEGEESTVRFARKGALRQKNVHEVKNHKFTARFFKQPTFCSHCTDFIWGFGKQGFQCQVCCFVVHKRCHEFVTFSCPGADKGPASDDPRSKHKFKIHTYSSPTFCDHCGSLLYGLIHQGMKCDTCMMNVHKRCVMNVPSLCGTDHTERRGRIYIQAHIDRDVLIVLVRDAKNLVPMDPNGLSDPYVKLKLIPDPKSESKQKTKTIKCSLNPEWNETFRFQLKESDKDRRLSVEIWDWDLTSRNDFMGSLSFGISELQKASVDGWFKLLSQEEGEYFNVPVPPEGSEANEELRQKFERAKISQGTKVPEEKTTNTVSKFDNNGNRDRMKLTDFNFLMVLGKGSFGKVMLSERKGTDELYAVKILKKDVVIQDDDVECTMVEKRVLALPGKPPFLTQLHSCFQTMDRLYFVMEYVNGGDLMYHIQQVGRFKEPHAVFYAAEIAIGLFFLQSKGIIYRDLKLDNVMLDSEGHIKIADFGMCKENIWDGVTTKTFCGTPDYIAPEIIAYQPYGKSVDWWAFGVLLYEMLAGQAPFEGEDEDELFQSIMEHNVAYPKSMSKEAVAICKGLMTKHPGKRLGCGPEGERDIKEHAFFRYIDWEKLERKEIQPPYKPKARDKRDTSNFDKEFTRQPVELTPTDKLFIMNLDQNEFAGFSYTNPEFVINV

| residual activity [1] [%] | residual activity [2] [%] | residual activity [3] [%] | residual activity [4] [%] | residual activity [5] [%] | residual activity [6] [%] | residual activity [7] [%] | residual activity [8] [%] | Compound |
| --- | --- | --- | --- | --- | --- | --- | --- | --- |
| 66 | 78 | 85 | 78 | 64 | 45 | 49 | 69 | COc1cc2c(Oc3ccc(-c4nc5ccccc5s4)cc3)ncnc2cc1OCCCN1CCCC1 |
| 67 | 53 | 75 | 78 | 72 | 61 | 54 | 77 | COc1cc2c(Oc3ccc(-c4nc5ccccc5s4)cc3)ncnc2cc1OCCCN1CCN(C)CC1 |
| 86 | 57 | 77 | 88 | 74 | 25 | 48 | 53 | COc1cc2c(Oc3ccc(-c4nc5ccccc5s4)cc3F)ncnc2cc1OCCCN1CCN(C)CC1 |
